{"source": "paper PMC9656482", "about": "“In Vitro and In Vivo Biological Activity of Ruthenium 1,10-Phenanthroline-5,6-dione Arene Complexes” (International Journal of Molecular Sciences, 2022)", "key": {"[1]": {"tested_on": "A2780 ovarian carcinoma cell line", "test": "MTS antiproliferative assay, A2780", "type": "cell-based, human", "experimental": "Normal dermal human fibroblasts, colorectal carcinoma cell line HCT116 and ovarian carcinoma cell line A2780 were acquired from ATCC (Manassas, VA, USA). […] Fibroblasts and HCT116 cells were cultured in Dulbecco’s modified Eagle medium (DMEM, Thermo Fisher Scientific) and A2780 cell line was cultured on Roswell Park Memorial institute 1640 (RPMI-1640, Thermo Fisher Scientific). Both media were supplemented with 10% (v/v) fetal bovine serum (FBS, Thermo Fisher Scientific) and a mixture of 100 U/mL penicillin and 100 mg/mL streptomycin. The supplemented media are referred to from this point on as DMEM or RPMI for simplicity. […] All experiments underwent at 37 °C, 5% (v/v) CO2 and 99% (v/v) humidity in the dark.\nCells were seeded in a 96-well plate in a density of 7500 cells/well, and after 24 h was submitted to a concentration range between 0.1–50 µM of complexes JHOR10 and JHOR11. DMSO with a 0.1% (v/v) concentration was used as vector control and cisplatin was used as positive control in all replicates. After 48 h incubation, cellular viability was inferred with the Cell Titer 96® Aqueous One solution cell proliferation assay (Promega, Madison, WI, USA) according to the manufacturer’s instructions and procedures previously described [18, 40]. The absorbance of the produced Formazan was quantified with a Tecan microplate reader, Infinite M200 (Tecan, Mannedorf, Switzerland) and the analysis of the dose–response curves to determine the relative IC50 was performed with GraphPad Prism 8.2.1 software (GraphPad Software, La Jolla, CA, USA)."}, "[2]": {"tested_on": "A2780 cells", "test": "Trypan blue exclusion method", "type": "cell-based, human", "details": "A2780, 48 h", "description": "A2780 cells were exposed for 48 h to the IC50 of JHOR11, and to a concentration 10 times higher and 10 times lower the IC50, and the live (transparent) and dead (blue) cells that remained adherent or in the supernatant were counted (Figure 6). A2780 cells were also incubated with 0.1% (v/v) DMSO as a vector control, and 0.1 µM doxorubicin as positive control (Supplementary Information, Figure S8).\nA2780 cells were seeded on a 24-well culture plate at a density of 37,500 cells/well. After 24 h to assure cell adherence, the medium was replaced by fresh RPMI supplemented with 0.1% (v/v) DMSO, 0.1 µM Doxorubicin or JHOR11 complex in three different concentrations: 1/10 IC50, IC50 or 10 × IC50. After 8 h, 24 h or 48 h incubation, the supernatant was removed and mixed with trypan blue (Thermo Fisher Scientific) to a final concentration 0.1% (w/v). In parallel, cells were detached from the well, centrifuged at 500× g and pellet was resuspended in 0.1% (w/v) Trypan blue. The number of viable cells and cells with compromised membrane (stained with blue) in both fractions were counted in a haemocytometer (Hirschmann, Eberstadt, Germany) and a CXX41 inverted microscope (Olympus, Tokyo, Japan)."}, "[3]": {"tested_on": "A2780 cells", "test": "Apoptosis, Annexin V-Alexa Fluor 488/propidium iodide double staining", "type": "cell-based, human", "details": "A2780, 48 h, IC50 of the complex", "description": "To understand if the loss of cell viability of an A2780 cell incubated with JHOR11 is due to cell apoptosis, cells were incubated with the IC50 of the complex and then double-stained with Annexin V, conjugated with AlexaFluor 488 and with propidium iodide (PI) to discriminate between live cells (unstained), cells in initial apoptosis (green-stained cells), cells in late apoptosis (double-stained cells) and cells in necrosis (red-stained cells).\nThe double staining of the A2780 cells incubated with JHOR11 for apoptosis evaluation followed procedures previously described. Briefly, A2780 cells were seeded on 6-well plates in a density of 2 × 10^5 cells/well, and incubated for 48 h with IC50 JHOR11, 0.1% (v/v) DMSO as vector control, and 3.5 µM cisplatin as positive control. Cells were then detached from the wells and double stained using the dead cell apoptosis kits with Annexin V for flow cytometry (Thermo Fisher Scientific) according to manufacturer’s instructions. The percentage of live cells (unstained), cells in initial apoptosis (stained with annexin V-Alexa Fluor 488), cells in late apoptosis (double stained with annexin V-Alexa Fluor 488 and propidium iodide) or cells in necrosis (stained with propidium iodide) was quantified using an Attune acoustic focusing flow cytometer and respective software (Thermo Fisher Scientific)."}, "[4]": {"tested_on": "normal human dermal fibroblasts", "details": "read-out: Relative IC50, Fibroblasts; 48 h incubation, MTS", "description": "(§1) The cytotoxic potential of the complexes was evaluated by assessing their viability using the 3-(4,5-dimethylthiazol-2-yl)-5-(3-carboxymethoxyphenyl)-2-(4-sulfophenyl)-2H tetrazolium, inner salt (MTS) colorimetric assay in three tumor cell lines—ovarian carcinoma, A2780, colorectal carcinoma, HCT116, and colorectal carcinoma resistant to doxorubicin, HCT116-Dox and in normal human primary dermal fibroblasts (Figure 1 and Figure S7).\n(§2) Normal dermal human fibroblasts, colorectal carcinoma cell line HCT116 and ovarian carcinoma cell line A2780 were acquired from ATCC (Manassas, VA, USA). HCT116 cell lines resistant to doxorubicin (HCT116-Dox) were derived from the HCT116 cell line, as previously described. Fibroblasts and HCT116 cells were cultured in Dulbecco’s modified Eagle medium (DMEM, Thermo Fisher Scientific) and A2780 cell line was cultured on Roswell Park Memorial institute 1640 (RPMI-1640, Thermo Fisher Scientific). Both media were supplemented with 10% (v/v) fetal bovine serum (FBS, Thermo Fisher Scientific) and a mixture of 100 U/mL penicillin and […] streptomycin. The supplemented media are referred to from this point on as DMEM or RPMI for simplicity."}, "[5]": {"tested_on": "doxorubicin-resistant HCT116 (HCT116-Dox)", "details": "read-out: Relative IC50, HCT116-Dox; 48 h incubation, MTS", "description": "as §1, §2"}, "[6]": {"tested_on": "chicken embryo", "test": "Ex ovo chorioallantoic membrane (CAM) assay", "experimental": "Each chicken embryo was exposed to the IC50 of JHOR11 and 0.1% (v/v) DMSO as vector control and the number of vessels in each treated region was counted at 0 h, and after 24 h and 48 h incubation at 37 °C, as previously described [39].\nThe CAM assay was performed as previously described [18, 39, 43]. Fertilized eggs with 48 h incubation were opened and stabilized for 24 h in white weighing boats. Two silicone rings were positioned in each embryo and 40 mL IC50 JHOR11 in phosphate-buffered saline (PBS) or 0.1% (v/v) DMSO in PBS, as vector control, were placed in each o-ring. The region delimited by each o-ring was photographed at 0 h, 24 h, 48 h with a digital USB microscope camera (Opti-Tekscope OT-V1). The newly formed veins were counted using ImageJ as previously described [37], and values were presented after normalization with the values obtained for control sample."}}}
{"molecule": "Cc1ccc(C(C)C)cc1.F[P-](F)(F)(F)(F)F.O=C1C(=O)c2cccnc2-c2ncccc21.[Cl][Ru+]", "note": "[JHOR11]", "values": [{"measurement": "IC50", "setting": "[1]; 48 h incubation, MTS, read-out: Relative IC50, A2780", "value": "1.2 ± 0.1", "unit": "µM"}, {"measurement": "selective index in A2780", "setting": "[1]; relative to fibroblasts", "value": 37.4}, {"measurement": "cells in the supernatant at 1/10 IC50 (Trypan blue)", "setting": "[2]; 1/10 IC50", "value": "exclusively live cells"}, {"measurement": "cells in the supernatant with increasing concentration (Trypan blue)", "setting": "[2]; 1/10 IC50, IC50, 10 × IC50", "value": "increased percentage of cells in the supernatant"}, {"measurement": "percentage of apoptotic cells", "setting": "[3]", "value": 3, "unit": "%"}, {"measurement": "IC50", "setting": "[4]", "value": "44.5 ± 2.2", "unit": "µM"}, {"measurement": "IC50", "setting": "[5]", "value": "6.8 ± 0.3", "unit": "µM"}, {"measurement": "newly formed vessels (angiogenesis)", "setting": "[6]; IC50 of JHOR11, 24 h and 48 h, versus DMSO-treated regions", "value": "no anti- or pro-angiogenic effects"}, {"measurement": "death of chicken embryos", "setting": "[6]; six embryos, 48 h, IC50 of JHOR11", "value": "did not induce the death"}]}
